“And” between values parts separate entries of the source, which are not always exact repeats. Equal values may be shown once.
How the values were obtained:
HUVECs = assay: Endothelial cell proliferation (CellTiter 96 AQueous One); assay type: cell-based, human; details: for change of VEGF-induced proliferation: delphinidin 10 μg/ml + VEGF 10 ng/ml; for change of rate of basal proliferation: delphinidin 10 μg/ml, 1% human serum
Protocol: HUVECs (12,000 cells per well) were seeded on 24-multiwell plates, or in the case of VEGFR2 studies HUVECs (10000 cells per well) were seeded on 96-multiwell plates, in high serum culture medium and allowed to attach for 4–5 h. The 20% serum medium was then replaced by 1% HS medium. After 24 h incubation, medium was removed and replaced with 500 μl /well or 280 μl/well (for VEGFR2 studies) of 1% HS medium containing tested substances. Cells were pre-treated with or without a MEK1/2 MAP kinase inhibitor (U-0126, 10 μM) or a PI3 kinase inhibitor (LY-294002, 10 μM), then treated with or without 10 ng/ml of VEGF, in presence or in absence of 10 μg/ml delphinidin. Cells were allowed to proliferate for 3 days and HUVEC proliferation was determined at 24 h, 48 h, and 72 h by a colorimetric assay using the ‘CellTiter 96 AQeous One Solution Cell Proliferation Assay’ from Promega.
Cells were pre-treated with or without a VEGFR2 specific inhibitor (Ki8751, 10 nM), then treated with or without 10 ng /ml in presence or absence of 10 μg/ml delphinidin. Cells were allowed to proliferate for 2 days and HUVECs proliferation was determined at 24 h and 48 h by a colorimetric assay using the ‘CellTiter 96 AQeous One Solution Cell proliferation Assay’ from Promega.

[1] = system: B16-F10 melanoma cell xenograft; assay: Tumor growth induced by B16-F10 melanoma cell xenograft in mice; assay type: in vivo, mouse; details: 10 mg/kg i.p. once a week for 3 weeks; 30th day; vs vehicle-treated mice
Protocol: (§1) Two groups of 7 male C57BL/6N mice were used at 6 weeks old for tumor induction. The experimental protocol is illustrated on in Fig 1A. Before any treatments, mouse weights were registered on day 1 (D1). On the following day (D2), all mice were subcutaneously injected on the ventral side near each hindleg with B16-F10 melanoma cells (25x10^4 cells in 100 μl of 0.9% NaCl). The seventh day after tumor cell inoculation (D9), mice were treated by i.p. injection (100 μl/10 g mice) with either drug solvent (1% ethanol) or 10 mg delphinidin/kg. Delphinidin as well as solvent injections were repeated twice at 7-day intervals (D16 and D23). Then, seven days later (D30) after pentobarbital anesthesia, mice were sacrificed by cervical dislocation and tumors were dissected and weighted.

[2] = Mouse weight during xenograft experiment; assay type: in vivo; details: 10 mg/kg i.p. once a week for 3 weeks; over 30 days; vs non-treated mice
Protocol: as §1

B16-F10 melanoma cells = assay: Melanoma cell proliferation (CyQUANT); assay type: cell-based, mouse; details: 24, 48 and 72 h
Protocol: B16-F10 (5,000 cells per well) were seeded on 96-multiwell plates in completed medium and allowed to attach overnight. […] Proliferation was determined at 24 h, 48 h and 72 h by a fluorimetric assay using the CyQUANT Cell Proliferation Assay Kit (Molecular Probes, Eugene, OR). After growth medium removal, dye-binding solution was added into each microplate well and cells were incubated at 37°C for 45 minutes. The fluorescence levels were read on a fluorescent microplate reader (Synergy HT, Biotek, Winooski, VT) with filters for 485 nm excitation and 530 nm emission.

VEGFR2 [3] = assay: VEGFR2 expression and phosphorylation in HUVECs (Western blot); assay type: cell-based, human
Protocol: (§2) HUVECs and B16-F10 cells were treated with delphinidin (10 μg/ml) for 3 h and then incubated without or with VEGF (10 ng/ml) for 30 min for VEGFR2 phosphorylation or 24 h for VEGFR2 expression. Then, the cells were […], washed twice with PBS and trypsinized. The cells were lysed with RIPA buffer freshly in presence of protease inhibitor. Cells were allowed to lyse for 45 min on ice and centrifuged at 15000 g for 15 min at 4°C. The supernatant was […], and protein concentrations in the supernatant were determined by protein assay.
(§3) The proteins (30 μg) were separated on 10% sodium dodecyl sulfate-polyacrylamide gel electrophoresis (SDS-PAGE) and transferred on the nitrocellulose membranes. The membranes were incubated with anti-VEGFR2 or anti-pVEGFR2. The anti-β-actin (Sigma-Aldrich) was used to visualize protein gel loading. The membranes were then incubated with appropriate HRP-conjugated secondary antibody. The protein-antibody complexes were detected by chemiluminescence using the Western Blotting Luminol reagent kit (Santa Cruz Biotechnology®).

VEGFR2 [4] = assay: VEGFR2 expression and phosphorylation in B16-F10 cells (Western blot); assay type: cell-based, mouse
Protocol: as §2, §3

p38 MAP kinase = p38 MAP kinase activation in HUVECs (Western blot); assay type: cell-based, human; details: delphinidin 10 μg/ml; 30 min
Protocol: (§4) HUVECs (9,000 cells per dish of 3.5 cm diameter) were seeded on petri dishes in high serum culture medium and allowed to attach for 4–5 h. The 20% serum medium was then replaced by 1% HS medium. […] Appropriate quantities of extracted proteins were resolved in a SDS-10% polyacrylamide gel and electro transferred onto PVDF membranes, as described previously. […] Immobilized antigens were detected by chemiluminescence using HRP-conjugates as secondary antibodies (1/60,000), an ECL assay kit and autoradiography films. Autoradiography signals were captured on a GeneGenius Bio Imaging System (Syngene) using the GeneSnap software and analyzed using the GeneTools software. […] Immobilized antigens were detected as described above.

CREB = CREB phosphorylation in HUVECs (Western blot); assay type: cell-based, human; details: 30 min
Protocol: as §4

ATF1 = ATF1 phosphorylation in HUVECs (Western blot); assay type: cell-based, human; details: delphinidin 10 μg/ml, 30 min
Protocol: as §4

PDE1 = assay: Purified PDE radio-enzymatic assay, PDE1; assay type: biochemical, bovine; details: substrate 1 μM cGMP, preliminarily reported in ref 26
Protocol: (§5) PDE1, PDE3, PDE4 and PDE5 were isolated by anion-exchange chromatography from bovine aortic smooth muscle cytosolic fraction as previously described. PDE2 was isolated from human platelets. Purified PDEs were stored as aliquots at -80°C until use. PDE activity was determined by a radio-enzymatic assay as described previously. The concentration of delphinidin that produced 50% inhibition (IC50) of substrate hydrolysis (determined at 1μM cAMP or cGMP) was calculated by non-linear regression analysis (GraphPad Prism, San Diego, CA) of concentration-response curves performed with 1–300 μM of delphinidin and included 6 different concentrations of delphinidin.

PDE2 = molecular target: T1, PDE2 (Homo sapiens, UniProt O00408); assay: Purified PDE radio-enzymatic assay, PDE2; assay type: biochemical; details: substrate 1 μM cAMP, preliminarily reported in ref 26
T1 construct: PDE2 was isolated from human platelets; from tissue; host or cells: human platelets
Protocol: as §5

PDE4 = assay: Purified PDE radio-enzymatic assay, PDE4; assay type: biochemical, bovine; details: substrate 1 μM cAMP; preliminarily reported in ref 26
Protocol: as §5

PDE5 = molecular target: T2, PDE5 (Bos taurus, UniProt Q28156); assay: Purified PDE radio-enzymatic assay, PDE5; assay type: biochemical, bovine; details: substrate 1 μM cGMP; preliminarily reported in ref 26
T2 construct: isolated by anion-exchange chromatography from bovine aortic smooth muscle cytosolic fraction; from tissue; host or cells: bovine aortic smooth muscle, cytosolic fraction
Protocol: as §5

human NSCLC cells = system: human NSCLC cells; design: method as in PMID 24124611; details: athymic nude mice subcutaneously implanted with human NSCLC cells; vs control mice; cited from earlier work

T1 sequence (O00408 whole entry): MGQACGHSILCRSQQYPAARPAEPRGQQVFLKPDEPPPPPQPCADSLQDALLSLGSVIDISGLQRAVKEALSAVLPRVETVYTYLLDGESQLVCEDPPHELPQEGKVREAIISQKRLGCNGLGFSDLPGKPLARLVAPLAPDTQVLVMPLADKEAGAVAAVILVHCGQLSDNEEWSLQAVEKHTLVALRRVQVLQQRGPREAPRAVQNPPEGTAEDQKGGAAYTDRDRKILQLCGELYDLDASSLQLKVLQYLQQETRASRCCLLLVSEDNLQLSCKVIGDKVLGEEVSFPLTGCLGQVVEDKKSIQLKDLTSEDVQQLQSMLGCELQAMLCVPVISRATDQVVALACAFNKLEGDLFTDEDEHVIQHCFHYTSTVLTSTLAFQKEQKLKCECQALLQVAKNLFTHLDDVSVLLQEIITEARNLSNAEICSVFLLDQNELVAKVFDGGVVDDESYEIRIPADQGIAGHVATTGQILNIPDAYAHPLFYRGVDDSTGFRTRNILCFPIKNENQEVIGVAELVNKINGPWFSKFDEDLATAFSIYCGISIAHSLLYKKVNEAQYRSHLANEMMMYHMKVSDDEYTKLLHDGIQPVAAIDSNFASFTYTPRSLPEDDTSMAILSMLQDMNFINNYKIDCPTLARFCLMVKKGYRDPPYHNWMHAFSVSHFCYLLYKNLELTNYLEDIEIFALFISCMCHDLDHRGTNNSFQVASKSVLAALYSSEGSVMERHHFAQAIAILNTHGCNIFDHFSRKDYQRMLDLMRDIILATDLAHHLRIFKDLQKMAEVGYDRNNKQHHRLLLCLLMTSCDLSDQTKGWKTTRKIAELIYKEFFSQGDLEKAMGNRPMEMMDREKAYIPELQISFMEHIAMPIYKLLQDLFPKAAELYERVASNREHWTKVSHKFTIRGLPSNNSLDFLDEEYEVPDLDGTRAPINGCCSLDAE

Molecule: N#CC(=C(N)Sc1ccccc1N)C(C#N)=C(N)Sc1ccccc1N [U-0126, 1,4-diamino-2,3-dicyano-1,4-bis(2-aminophenylthio)-butadiene, reference compound]
- proliferation rate (% of control) (HUVECs; U-0126 10 μM + VEGF 10 ng/ml, 72 h, n.s. vs control): 131%
- effect on the inhibitory effect of delphinidin on basal proliferation (HUVECs; U-0126 10 μM + delphinidin 10 μg/ml): reversed to some extent closer to basal level

Molecule: Oc1cc(O)c2cc(O)c(-c3cc(O)c(O)c(O)c3)[o+]c2c1 [delphinidin, Delphinidin]
- decrease of tumor weight [1]: 83%
- mouse weight as a percent of the starting weight [2]: unchanged
- B16-F10 proliferation (B16-F10 melanoma cells; delphinidin 10 μg/ml): did not inhibit
- change of VEGF-induced proliferation (HUVECs; 24 h): -56%
- change of VEGF-induced proliferation (HUVECs; 48 h): -85%
- change of VEGF-induced proliferation (HUVECs; 72 h): -130%
- change of rate of basal proliferation (HUVECs; 24 h): -52%
- change of rate of basal proliferation (HUVECs; 48 h): -66%
- change of rate of basal proliferation (HUVECs; 72 h): -70%
- ability of VEGF in increasing VEGFR2 phosphorylation (VEGFR2 [3]; delphinidin 10 μg/ml 3 h, then VEGF 10 ng/ml 30 min): completely prevented
- ability of VEGF in increasing VEGFR2 expression (VEGFR2 [3]; delphinidin 10 μg/ml 3 h, then VEGF 10 ng/ml 24 h): completely prevented
- VEGFR2 expression (VEGFR2 [3]; delphinidin 10 μg/ml alone): no effect
- VEGFR2 phosphorylation (VEGFR2 [3]; delphinidin 10 μg/ml alone): no effect
- VEGF-dependent VEGFR2 phosphorylation (VEGFR2 [4]; delphinidin 10 μg/ml 3 h, then VEGF 30 min): inhibited
- basal p38 MAP kinase activation (p38 MAP kinase): did not affect
- increase of CREB phosphorylation induced by VEGF (CREB; delphinidin 10 μg/ml + VEGF 10 ng/ml): completely prevented
- CREB phosphorylation (CREB; delphinidin 10 μg/ml alone): no significant effect
- phosphorylation of ATF1 (ATF1; after stimulation by VEGF 10 ng/ml): abolished
- phosphorylation of ATF1 (ATF1; control conditions): abolished
- IC50 (PDE1; +CaM/Ca): 15 ± 3 µM
- IC50 PDE1 (PDE1; +CaM/Ca): 5 ± 1 µg/mL
- IC50 (PDE1; no regulator): 33 ± 6 µM
- IC50 PDE1 (PDE1; no regulator): 11 ± 2 µg/mL
- IC50 (PDE2; +5μM cGMP): 19.8 µM and 18 µM
- IC50 (PDE2; no regulator): 115 µM and 103 µM
- IC50 (PDE4): 109 ± 12 µM
- IC50 PDE4 (PDE4): 37 ± 4 µg/mL
- IC50 (PDE5): 49.5 µM and 44 µM
- tumor growth (human NSCLC cells): significant inhibition

Molecule: VEGF
- B16-F10 melanoma cell proliferation (B16-F10 melanoma cells; VEGF 10 ng/ml): not able increase
- VEGFR2 phosphorylation (VEGFR2 [3]; VEGF 10 ng/ml 30 min): increased
- VEGFR2 expression (VEGFR2 [3]; VEGF 10 ng/ml 24 h): increased
- VEGFR2 expression (VEGFR2 [4]; VEGF 10 ng/ml): did not modify
- VEGFR2 phosphorylation (VEGFR2 [4]; VEGF 10 ng/ml 30 min): increased
- increase of CREB phosphorylation (CREB; VEGF 10 ng/ml): +484%

Molecule: O=c1cc(N2CCOCC2)oc2c(-c3ccccc3)cccc12 [LY-294002, 2-(4-Morpholinyl)-8-phenyl-4H-1-benzopyran-4-one, reference compound]
- effect on the inhibitory effect of delphinidin on basal proliferation (HUVECs; LY-294002 10 μM + delphinidin 10 μg/ml): completely blunted
- increase of basal proliferation (HUVECs; LY-294002 10 μM, 72 h): not at 72 h

Molecule: COc1cc2nccc(Oc3ccc(NC(=O)Nc4ccc(F)cc4F)c(F)c3)c2cc1OC [Ki8751, reference compound]
- ability of VEGF to increase endothelial cell proliferation (HUVECs; Ki8751 10 nM + VEGF, 24 and 48 h): completely abolished
